The test system of data set [1] is LS180. The data set is described as follows: Activation of PXR/LXR in human LS180 cells assessed as induction of P-gp measured as intracellular accumulation of Rhodamine-123 at 5 uM preincubated for 48 hrs followed by 40 mins incubation with HANKS buffer and subsequent addition of Rhodamine-123 measured after 90 mins by fluorescence analysis relative to control. It counts as cell-based.

Data set [2] in a line: Cytotoxicity against human LS180 cells assessed as effect on cell viability at 50 uM measured after 24 hrs by MTT assay relative to control. It counts as toxicity, cell-based. The following applies: read-out: Activity. (Tetrazolium dyes change colour on reduction, which living cells bring about.)
The nature of data set [3]: Cytotoxicity against human SH-SY5Y cells assessed as effect on cell viability at 50 uM measured after 24 hrs by MTT assay relative to control. It counts as toxicity, cell-based. The following applies: read-out: Activity.
A short description of data set [4]: Therapeutic index, ratio of effective concentration for cytotoxicity in human LS180 cells to effective concentration for activation of PXR/LXR in human LS180 cells assessed as induction of P-gp. The note with it: read-out: TI. Format: cell-based.
The nature of data set [5]: Therapeutic index, ratio of effective concentration for cytotoxicity in human SH-SY5Y cells to effective concentration for activation of PXR/LXR in human LS180 cells assessed as induction of P-gp. The following applies: read-out: TI. It counts as cell-based.

31 molecules from ChEMBL document CHEMBL3865833, “Functional induction of P-glycoprotein efflux pump by phenyl benzenesulfonamides: Synthesis and biological evaluation of T0901317 analogs” (Eur J Med Chem, 2016) can be followed below.

Turning to `CC(=O)c1ccc(N(Cc2cn(-c3ccc(C(C)=O)cc3)nn2)S(=O)(=O)c2ccccc2)cc1`, the Activity in data set [1] amounted to 66.2%. In addition, the viability at 24 h, 50 µM in data set [2] worked out at 87.3%; in data set [3], 97.3%. The selectivity ratio in data set [4] and in data set [5] was 10 each time.
Consider `Cc1ccc(C)c(-n2cc(CN(c3ccc(C(O)(C(F)(F)F)C(F)(F)F)cc3)S(=O)(=O)c3ccccc3)nn2)c1`, for which the Activity in data set [1] was found to be 69%. The figures for the viability at 24 h, 50 µM in data set [2] and in data set [3] were 76.9% and 93%, respectively. Also, the selectivity ratio in data set [4] and in data set [5] was 10 in each case.
Regarding `COc1ccc(-n2cc(CN(c3ccc(C(O)(C(F)(F)F)C(F)(F)F)cc3)S(=O)(=O)c3ccccc3)nn2)cc1`, the Activity in data set [1] was found to be 81.4%. The viability at 24 h, 50 µM in data set [2] came to 84.9%; in data set [3], 59.2%. In addition, the selectivity ratio in data set [4] and in data set [5] was 10 each time.
For `C#CCN(c1ccc(C(O)(C(F)(F)F)C(F)(F)F)cc1)S(=O)(=O)c1ccccc1`, in data set [1], the Activity was 60.8%. For the same molecule, the viability at 24 h, 50 µM in data set [2] was 89.5%; in data set [3], 112%. Also, the selectivity ratio in data set [4] and in data set [5] was 10 each time.
On to `CC(=O)c1ccc(N(Cc2cn(-c3ccccc3C#N)nn2)S(=O)(=O)c2ccccc2)cc1`, for which the Activity in data set [1] was found to be 86.2%. Besides, the viability at 24 h, 50 µM in data set [2] was 91.8%; in data set [3] it was 99%. Also, the selectivity ratio in data set [4] and in data set [5] was 10 throughout.
For `Cc1ccc(-n2cc(CN(c3ccc(C(O)(C(F)(F)F)C(F)(F)F)cc3)S(=O)(=O)c3ccccc3)nn2)cc1`, in data set [1], the Activity is 74.6%. In addition, the viability at 24 h, 50 µM in data set [2] worked out at 71.9%; in data set [3], 48.9%. Moreover, the selectivity ratio in data set [4] is 10.
For `CC(=O)c1ccc(N(Cc2cn(-c3cccc([N+](=O)[O-])c3)nn2)S(=O)(=O)c2ccccc2)cc1`, in data set [1], the Activity was 71.6%. Moreover, the viability at 24 h, 50 µM in data set [2] was found to be 112%; in data set [3] it was 74.2%. The selectivity ratio in data set [4] and in data set [5] was 10 throughout.
For `CC(=O)c1ccc(N(Cc2cn(-c3c(C)cccc3C)nn2)S(=O)(=O)c2ccccc2)cc1`, the Activity in data set [1] worked out at 58.4%. In addition, the viability at 24 h, 50 µM turned out to be 60.6% in data set [2] and 80.4% in data set [3]. The selectivity ratio in data set [4] and in data set [5] was 10 in each case.
As for `CC(=O)c1ccc(N(Cc2cn(-c3ccc(OC(F)(F)F)cc3)nn2)S(=O)(=O)c2ccccc2)cc1`, the Activity in data set [1] came to 83.4%. Besides, the viability at 24 h, 50 µM was 67.6% in data set [2] and 64.4% in data set [3]. Also, the selectivity ratio in data set [4] and in data set [5] was 10 throughout.
Consider `O=S(=O)(c1ccccc1)N(Cc1cn(-c2cccc(F)c2)nn1)c1ccc(C(O)(C(F)(F)F)C(F)(F)F)cc1`, for which the Activity in data set [1] stood at 90.3%. Besides, the viability at 24 h, 50 µM in data set [2] was 56%; in data set [3] it was 29.8%. The selectivity ratio in data set [4] and in data set [5] was 10 each time.
As to `O=S(=O)(c1ccccc1)N(Cc1cn(-c2ccc(C(F)(F)F)cc2)nn1)c1ccc(C(O)(C(F)(F)F)C(F)(F)F)cc1`, in data set [1], the Activity was determined as 70.2%. For the same molecule, the viability at 24 h, 50 µM in data set [2] stood at 62.8%; in data set [3] it was 49.8%. Besides, the selectivity ratio in data set [4] and in data set [5] was 10 throughout.
In the case of `COC(=O)c1ccc(-n2cc(CN(c3ccc(C(C)=O)cc3)S(=O)(=O)c3ccccc3)nn2)cc1`, the Activity in data set [1] stood at 77%. Moreover, the viability at 24 h, 50 µM in data set [2] is 80.6%; in data set [3] it was 71.8%. Besides, the selectivity ratio in data set [4] and in data set [5] was 10 each time.
`O=S(=O)(c1ccccc1)N(Cc1cn(-c2ccc(F)cc2)nn1)c1ccc(C(O)(C(F)(F)F)C(F)(F)F)cc1`: the Activity in data set [1] is 70.5%. Moreover, the figures for the viability at 24 h, 50 µM in data set [2] and in data set [3] were 51.5% and 36.4%, respectively. Also, the selectivity ratio in data set [4] and in data set [5] was 10 in each case.
With `CC(=O)c1ccc(N(Cc2cn(-c3ccccc3F)nn2)S(=O)(=O)c2ccccc2)cc1`, the Activity in data set [1] is 55.7%. The results for the viability at 24 h, 50 µM in data set [2] and in data set [3] were 83.8% and 93.6%, respectively. Also, in data set [5], the selectivity ratio came out at 10.
Regarding `O=S(=O)(c1ccccc1)N(Cc1cn(-c2ccc(OC(F)(F)F)cc2)nn1)c1ccc(C(O)(C(F)(F)F)C(F)(F)F)cc1`, the Activity in data set [1] is 67.8%. Besides, the viability at 24 h, 50 µM in data set [2] stood at 68.7%; in data set [3] it was 43.5%. In addition, the selectivity ratio in data set [4] and in data set [5] was 10 in each case.
On to `CC(=O)c1ccc(N(Cc2cn(-c3ccc(O)c([N+](=O)[O-])c3)nn2)S(=O)(=O)c2ccccc2)cc1`, for which the Activity in data set [1] was 74%. Besides, the figures for the viability at 24 h, 50 µM in data set [2] and in data set [3] were 96.1% and 71.3%, respectively. Moreover, the selectivity ratio in data set [4] and in data set [5] was 10 throughout.
Consider `CC(=O)c1ccc(N(Cc2cn(-c3ccc(Cl)cc3)nn2)S(=O)(=O)c2ccccc2)cc1`, for which, in data set [1], the Activity turned out to be 68.8%. The viability at 24 h, 50 µM in data set [2] was 88.1%; in data set [3], 74.4%. Also, the selectivity ratio in data set [4] was determined as 10.
For `CC(=O)c1ccc(N(CC(F)(F)F)S(=O)(=O)c2ccccc2)cc1`, in that order: 63.5%, 88.3%, 81.3% and 10.
Consider `O=S(=O)(c1ccccc1)N(Cc1cn(-c2ccc(F)cc2F)nn1)c1ccc(C(O)(C(F)(F)F)C(F)(F)F)cc1`, for which the Activity in data set [1] is 66.3%. The viability at 24 h, 50 µM in data set [2] turned out to be 93.6%; in data set [3] it was 86.5%. In addition, the selectivity ratio in data set [5] was determined as 10.
As to `CC(=O)c1ccc(N(Cc2cn(-c3cccc(C(C)=O)c3)nn2)S(=O)(=O)c2ccccc2)cc1`, the Activity in data set [1] was found to be 71%. The values for the viability at 24 h, 50 µM in data set [2] and in data set [3] were 84.7% and 78.7%, respectively. The selectivity ratio in data set [4] and in data set [5] was 10 in each case.
Regarding `CCOC(=O)c1ccc(-n2cc(CN(c3ccc(C(O)(C(F)(F)F)C(F)(F)F)cc3)S(=O)(=O)c3ccccc3)nn2)cc1`, the Activity in data set [1] was 91.3%. In addition, the viability at 24 h, 50 µM worked out at 76.5% in data set [2] and 73.8% in data set [3]. Also, the selectivity ratio in data set [4] and in data set [5] was 10 throughout.
`O=S(=O)(c1ccccc1)N(Cc1cn(-c2ccccc2)nn1)c1ccc(C(O)(C(F)(F)F)C(F)(F)F)cc1`: the Activity in data set [1] was 87.9%. Besides, the figures for the viability at 24 h, 50 µM in data set [2] and in data set [3] were 46.4% and 39.5%, respectively. The selectivity ratio in data set [4] and in data set [5] was 10 throughout.
`CC(=O)c1ccc(N(Cc2cn(-c3ccc(F)cc3)nn2)S(=O)(=O)c2ccccc2)cc1`: in data set [1], the Activity was 55.9%. The viability at 24 h, 50 µM in data set [2] is 60%; in data set [3] it was 90.4%. In addition, in data set [5], the selectivity ratio was determined as 10.
On to `CC(=O)c1ccc(N(Cc2cn(-c3ccc(C(O)(C(F)(F)F)C(F)(F)F)cc3)nn2)S(=O)(=O)c2ccccc2)cc1`, for which the Activity in data set [1] is 87.4%. Further, the viability at 24 h, 50 µM in data set [2] worked out at 103%; in data set [3] it was 123%.
For `CC(=O)c1ccc(-n2cc(CN(c3ccc(C(O)(C(F)(F)F)C(F)(F)F)cc3)S(=O)(=O)c3ccccc3)nn2)cc1`, in data set [1], the Activity turned out to be 81.6%. Besides, the viability at 24 h, 50 µM worked out at 70.7% in data set [2] and 42.2% in data set [3]. In addition, the selectivity ratio in data set [4] and in data set [5] was 10 throughout.
As to `O=[N+]([O-])c1ccc(-n2cc(CN(c3ccc(C(O)(C(F)(F)F)C(F)(F)F)cc3)S(=O)(=O)c3ccccc3)nn2)cc1`, in data set [1], the Activity was found to be 80.6%. The viability at 24 h, 50 µM in data set [2] is 66.2%; in data set [3], 39.6%. In addition, the selectivity ratio in data set [4] and in data set [5] was 10 each time.
As to `Cc1ccc(-n2cc(CN(c3ccc(C(O)(C(F)(F)F)C(F)(F)F)cc3)S(=O)(=O)c3ccccc3)nn2)cc1C`, in data set [1], the Activity amounted to 68.7%. Further, the viability at 24 h, 50 µM in data set [2] worked out at 80%; in data set [3], 68.7%. Besides, the selectivity ratio in data set [4] and in data set [5] was 10 each time.
Take `C#CCOC(c1ccc(N(CC#C)S(=O)(=O)c2ccccc2)cc1)(C(F)(F)F)C(F)(F)F`: in data set [1], the Activity came to 79.7%. For the same molecule, the viability at 24 h, 50 µM was determined as 78.7% in data set [2] and 88.7% in data set [3]. In addition, the selectivity ratio in data set [4] and in data set [5] was 10 in each case.
Take `CC(=O)c1ccc(N(Cc2cn(-c3ccccc3C)nn2)S(=O)(=O)c2ccccc2)cc1`: in data set [1], the Activity came out at 65.1%. The viability at 24 h, 50 µM in data set [2] stood at 64.4%; in data set [3], 92.9%. In addition, the selectivity ratio in data set [4] and in data set [5] was 10 throughout.
On to `CC(=O)c1ccc(N(Cc2cn(-c3ccc([N+](=O)[O-])cc3)nn2)S(=O)(=O)c2ccccc2)cc1`, for which, in data set [1], the Activity was determined as 55.6%. Besides, the viability at 24 h, 50 µM in data set [2] was 74.7%; in data set [3], 105%. Also, the selectivity ratio in data set [4] and in data set [5] was 10 throughout.
Consider `CC(=O)c1ccc(N(Cc2ccccc2)S(=O)(=O)c2ccccc2)cc1`, for which the Activity in data set [1] was 64.5%. In addition, the viability at 24 h, 50 µM came out at 89.5% in data set [2] and 112% in data set [3]. Moreover, in data set [4], the selectivity ratio worked out at 10.
